Source: patent US20140179607A9 (IRONWOOD PHARMACEUTICALS, INC, priority 2009, published 2014)
Positions of bridges follow the written chain, without caps; N, C: chain ends. Non-standard residues stand in square brackets, D forms with d. Residues, ends and D or L forms follow the SMILES beside them. pS = N[C@@H](COP(=O)(O)O)C(=O)O

How the values were obtained:
[1] = test system: Potato acid phosphatase (PoAP); assay: Acid phosphatase reaction, potato acid phosphatase; assay type: in vitro ADME; settings: Potato acid phosphatase pH 5, 90 minutes at 37° C.
Description: (§1) For the alkaline phosphatase reactions, peptide stocks were prepared at 1 mg/mL in 0.1 M Tris-HCl pH 8, which were stored at −20° C. until assays were conducted. For the acid phosphatase reactions, peptide stocks were prepared at 1 mg/mL in 50 mM sodium phosphate pH 6, which was stored at −20° C. until assays were conducted.
(§2) Potato acid phosphatase (PoAP) was obtained from Sigma, St. Louis, Miss. Cat #P1146 and human prostate acid phosphatase (HuPrAP) was obtained from MP Biochemicals, Solon, Ohio. Cat # 153872. The acid phosphatases were dissolved to provide a solution containing 0.5 units AP/μL using 50 mM sodium acetate pH 5, 0.2 mM MgCl2. The acid phosphatase reactions were assembled in 20 μL quantities containing: • 2 μL 10× acid phosphatase buffer (500 mM sodium acetate pH 5, 2 mM MgCl2) • 2 μL peptide stock (1 mg/mL) • 12 μL H2O • 4 μL acid phosphatase (0.5 or 2 units)
(§3) The reaction solutions were mixed gently and incubated for 90 minutes at 37° C. The reaction solutions were stored at −20° C. for later analysis. For analysis, 7.5 μL acid phosphatase reactions were diluted to 50 μL with 0.1% formic acid in water to a final concentration of 10 μM. The control reactions for enzyme activity were assembled and diluted to 10 mM p-nitrophenylphosphate in place of peptide. After incubation, the reactions were diluted with 0.1 mL of 100 mM borate buffer pH 9 and read at the absorbance of 405 nm to monitor p-nitrophenol appearance.

[2] = test system: potato acid phosphatase (PoAP); assay: Acid phosphatase reaction, potato acid phosphatase; assay type: in vitro ADME; settings: potato acid phosphatase (PoAP); Potato acid phosphatase pH 5, 90 minutes at 37° C.
Description: as §1, §2, §3

[3] = target: T1, human prostate acid phosphatase (HuPrAP) (Homo sapiens, UniProt P15309); assay: Acid phosphatase reaction, human prostate acid phosphatase; assay type: in vitro ADME; settings: Human prostatic acid phosphatase pH 5, 90 minutes at 37° C.
T1 construct: purchased MP Biochemicals, Solon, Ohio 153872
T1 sequence (P15309 33-386): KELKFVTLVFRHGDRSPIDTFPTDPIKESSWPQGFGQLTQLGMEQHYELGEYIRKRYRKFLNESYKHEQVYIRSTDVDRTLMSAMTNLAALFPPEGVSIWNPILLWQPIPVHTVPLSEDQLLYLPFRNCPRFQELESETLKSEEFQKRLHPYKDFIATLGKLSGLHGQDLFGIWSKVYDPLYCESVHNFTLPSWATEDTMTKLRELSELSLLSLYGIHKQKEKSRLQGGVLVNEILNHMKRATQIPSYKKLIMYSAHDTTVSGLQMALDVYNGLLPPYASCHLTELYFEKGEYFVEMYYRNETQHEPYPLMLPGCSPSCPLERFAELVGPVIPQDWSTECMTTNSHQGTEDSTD
Description: as §1, §2, §3

[4] = test system: T2, calf intestinal alkaline phosphatase (CIP); assay: Alkaline phosphatase reaction (dephosphorylation of peptide substrates, LCMS); assay type: in vitro ADME; settings: calf intestinal alkaline phosphatase (CIP); Alkaline phosphatase pH 8, 90 minutes at 37° C.
T2 construct: purchased New England BioLabs, Ipswich, Mass; M0290S
Description: as §1
(§4) Calf intestinal alkaline phosphatase (CIP) was obtained from New England BioLabs, Ipswich, Mass. Cat # M0290S. The CIP reaction solution was prepared by dilution with buffer (50 mM KCl, 10 mM Tris-HCl pH 8, 1 mM MgCl2, 50% glycerol) to 0.5 units/μL. The alkaline phosphatase reaction solutions were assembled in 20 μL quantities containing: • 2 μL 10× CIP buffer (1M NaCl, 500 mM Tris-HCl pH 8, 100 mM MgCl2) • 2 μL peptide stock (1 mg/mL) • 12 μL H2O • 4 μL alkaline phosphatase (0, 0.5 or 2 units)
(§5) The reaction solutions were mixed gently and incubated for 90 minutes at 37° C. These reaction solutions were stored at −20° C. until analysis. For analysis, the reaction solutions were diluted from 7.5 μL of CIP treated peptide to 50 μL with 0.1% formic acid in water to a final concentration of 10 μM.
(§6) Control reactions were assembled for enzyme activity containing 10 mM p-nitrophenylphosphate in place of peptide. After incubation, the reactions were diluted with 0.1 mL of 100 mM borate buffer pH 9 and read at the absorbance of 405 nm to monitor p-nitrophenol appearance.

[5] = target: T3, Calf intestinal alkaline phosphatase (CIP) (Bos taurus, UniProt P19111); assay: as above; assay type: in vitro ADME; settings: Alkaline phosphatase pH 8, 90 minutes at 37° C.
T3 construct: purchased New England BioLabs, Ipswich, Mass; M0290S
T3 sequence (P19111 20-506): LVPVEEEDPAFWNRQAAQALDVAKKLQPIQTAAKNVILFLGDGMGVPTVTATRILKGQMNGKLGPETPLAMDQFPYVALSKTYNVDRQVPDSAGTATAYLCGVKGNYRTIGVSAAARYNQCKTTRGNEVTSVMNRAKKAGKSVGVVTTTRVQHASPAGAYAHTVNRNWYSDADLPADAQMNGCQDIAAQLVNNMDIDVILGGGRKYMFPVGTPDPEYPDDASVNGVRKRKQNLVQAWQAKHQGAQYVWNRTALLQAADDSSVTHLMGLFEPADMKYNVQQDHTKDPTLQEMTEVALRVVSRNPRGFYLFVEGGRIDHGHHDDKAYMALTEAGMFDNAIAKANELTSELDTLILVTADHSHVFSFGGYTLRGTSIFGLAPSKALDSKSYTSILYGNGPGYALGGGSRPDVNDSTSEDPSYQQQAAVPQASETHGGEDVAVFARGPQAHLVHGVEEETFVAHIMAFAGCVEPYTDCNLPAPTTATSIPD
Description: as §1, §4, §5, §6

[6] = test system: ligated rat duodenal loops; assay: Fluid secretion in rat intestinal loops; assay type: in vivo, rats
Description: The effect of GC-C agonist peptides on secretion were studied by injecting GC-C agonist peptides described herein directly into an isolated loop in wild-type rats.
Loops were isolated by surgically ligating three loops in the small intestine of the rat. The methodology for ligated loop formation was similar to that described in (London et al., 1997, Am J Physiol, p. G93-105). The loops were roughly centered and at lengths of 1-3 cm. The loops were injected with 200 μl of either peptide/GC-C agonist (0.1-5 μg) or vehicle (20 mM Tris, pH 7.5 or Krebs Ringer, 10 mM Glucose, HEPES buffer (KRGH)). Following a recovery time of up to 90 minutes the loops were excised. Weights were recorded for each loop before and after removal of the fluid contained therein. The length of each loop was also recorded. A weight to length ratio (W/L) for each loop was calculated to determine the effects of the GC-C agonist peptide described herein on secretion. Loop fluid volume was also determined.
Data showing increases in fluid secretion, pH increase and bicarbonate secretion in ligated duodenal loops in rats are shown in FIG. 2 and Table 8. […] Table 8 provides the results in ligated rat duodenal loops using 2.5 μg of peptide per loop.

female CD-1 mice = assay: Gastrointestinal transit in mice (charcoal meal); assay type: in vivo; settings: oral gavage, % distance travelled by charcoal front
Description: The purpose of the assay was to test the effect of the guanylate cyclase C agonist peptides on in vivo gastrointestinal transit in mice.
For the assay, female CD-1 mice (n=10 per group) weighing 25-30 g were fasted overnight and given access to water ad libitum. Activated charcoal (20 g; 100 mesh; Sigma cat# 242276) was suspended in 200 mL gum arabic (100 mg/mL), and stirred for at least one hour. Test peptides were prepared in a 20 mM Tris pH 6.9 vehicle.
Test peptide and vehicle were administered in 200 μL doses by oral gavage. Seven minutes after dosing the test peptides, 200 μL of the charcoal/gum arabic suspension was dosed by oral gavage. […] The total length of the small intestine was measured from the pyloric junction to the ileocaecal junction. The distance travelled by the charcoal was measured from the pyloric junction to the charcoal front. The Distance Travelled (%) was determined as (distance travelled by charcoal/total length of the small intestine)×100. Data were entered into the GraphPad Prism software program and analyzed by ANOVA using a Bonferroni multiple comparison test post-hoc. Plots of data and ED50 were also determined using the GraphPad Prism software package.
The dose-dependent effects of acute doses of Peptide 4, Peptide 1, Peptide 2, the dephosphorylated form of Peptide 1 and the dephosphorylated form of Peptide 2 on GI transit were determined in female CD mice. […]

[7] = 2.5 μg of peptide per loop, duodenal loops

Row | Compound | Dephospho (%) [1] [%] | remaining at 1.5 h, 0.1 mg/mL [2] [%] | Dephospho (%) [3] [%] | remaining at 1.5 h, 0.1 mg/mL ([3]; human prostate acid phosphatase (HuPrAP)) [%] | remaining at 1.5 h, 0.1 mg/mL [4] [%] | Dephospho (%) [5] [%] | Rate of HCO3^− accumulation [6, 7] [Meq/min/cm] | Rate of fluid accumulation [6, 7] [µL/min/cm] | pH [6, 7] | Induction of fluid accumulation / duodenal fluid secretion (FIG. 2) ([6]; ligated rat duodenal loops) | ED50 (μg/kg), acceleration of upper GI transit (female CD-1 mice) [µg/kg]
1 | CC(C)C[C@@H]1NC(=O)[C@H](COP(=O)(O)O)NC(=O)[C@@H]2CSSC[C@@H]3NC(=O)[C@H](C)NC(=O)[C@@H]4CCCN4C(=O)[C@H](CC(N)=O)NC(=O)[C@H](CSSC[C@H](N)C(=O)N2)NC(=O)[C@H](CSSC[C@@H](C(=O)N[C@@H](Cc2ccc(O)cc2)C(=O)O)NC(=O)CNC(=O)[C@H]([C@@H](C)O)NC3=O)NC1=O [Peptide 1, CCpSLCCNPACTGCY] (H-CC[pS]LCCNPACTGCY-OH; disulfide 1-6, 2-10, 5-13 (inferred); N-terminus and C-terminus assumed) | 22.1 | 77.8 | 6.2 | 93.8 | 0 | 100 | – | – | – | – | –
2 | CCEFCCNPACTGCY [Peptide 4, GC-C agonist peptide with Glu in place of phosphoserine, used as comparator] | – | – | – | – | – | – | 0.00008 | 2.0 | 8.2 | promote duodenal fluid secretion | 2.06
